# In patent US6150414A, “Compositions and methods for treating viral infections” (priority 1992, dated 2000):
# “And” between values parts separate entries of the source, which are not always exact repeats. Identical values can stand only once. Like-named read-outs stand apart in the source and are kept apart here.
# How the values were obtained:
# HIV = details: human, in vivo; cited from earlier work
# Friend Leukemia Virus [1] = assay: FV-induced splenomegaly, PAC compounds in combination with AZT (Example 1(b)); type: in vivo, BALB/c mice; details: 5X AZT 20 micrograms per mouse
# Method: (§1) The effects of compositions according to the present invention on the increase in spleen size (splenomegaly) of BALB/c mice (Jackson Labs, Bar Harbor, ME) was examined. In these experiments, the virus (10^6 focus forming units--FFU) was inoculated intravenously and 100 micrograms of the compounds indicated in Table II were administered to the mice intraperitoneally 24 hours later. Each compound was administered once to two mice. The animals were sacrificed ten days later and their spleens weighed.
# (§2) As used in Table II (and subsequent Tables of this Example l(a) and (b), "average percent inhibition" is calculated as follows: [formula] wherein "ASWNC" designates "average spleen weight of negative control"; "ASWE" designates "average spleen weight of experimental (treated) subject"; and "ASWPC" designates "average spleen weight of positive control". Average spleen weight is the numerical average of spleen weights of each experimental group (in Table II each such group includes two members).
# The compounds of the present invention (100 micrograms per mouse) were also tested in combination with AZT (20 micrograms per mouse, twice a day) using otherwise the same methods as in Example 1(a) above. As representatives, compound #9 above (3-bromophenanthro (3,4-C), phenanthrene) and compound #10 (diindeno (1, 2, 3-CD/1', 2', 3'-IM) Perylene) were chosen. […] The compounds were administered i.p. either once or five times (once per day) alone or together with AZT (20 micrograms of AZT per mouse twice a day for five days?). Thus, in experiments where AZT was administered five times, a total of […] of AZT was received by each mouse (with a total of 500 micrograms of the PAC compound).
# Friend Virus = assay: Friend Virus-induced splenomegaly, WIS compounds (Example 8); type: in vivo, mice; set-up: Actual Spleen Weight / Average Spleen Weight: unit not given here; details: Table VII; for Actual Spleen Weight: single animal
# Method: as §1, §2
# The AAB compounds whose synthesis is described above were assayed for antiviral activity. WIS-2, -3, -4, -5 and -6 were tested to determine their biological effects on Friend Virus-induced splenomegaly using the procedure and technique set forth in Example 1 above. The assay results (three mice per group were tested each at different concentrationss of the active composition except for the PBS-negative control wherein two animals per group were used) are reported in Table VII below.
# [2] = Stability to light and pH; type: physicochemical; details: for stability to light: irradiation / exposure to light
# [3] = target: T1, Radiation Leukemia Virus reverse transcriptase (Radiation murine leukemia virus, UniProt P11227); assay: Radiation Leukemia Virus reverse transcriptase assay, supernatants from infected AQR cells (Examples 4 and 9); type: biochemical; details: Table VIII; for inhibition at 50 ng / inhibition at 0.0001 mg / inhibition at 0.0005 mg / inhibition at 0.001 mg / inhibition at 0.002 mg / inhibition at 0.005 mg / inhibition at 0.01 mg: 0.5 h; for inhibition at 0.01 mg: read-out: Average % Inhibition; for CPM: replicate
# T1 construct: the reverse transcriptase of Radiation Leukemia Virus; endogenous in cells
# Outline: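 Supernatants from AQR cells chronically infected with RadLV were incubated 30 min on ice with the test compound (hypericin, protohypericin or HHA). Virus was pelleted at 100,000×g for 1 h at 4 °C, and the pellet was assayed for reverse transcriptase activity.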
# retroviruses (virions) = assay: Direct inactivation of retroviruses (virions) in vitro (Example 10); type: biochemical, Radiation Leukemia Virus; details: Table IX
# Outline: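 RadLV-containing supernatants from chronically infected B10.T(6R) cells incubated 30 min on ice with hypericin or protohypericin. Virions then pelleted at 100,000×g for 1 h at 4° C and assayed for reverse transcriptase activity. EC50 is the micromolar concentration inhibiting 50% of virus.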
# Friend Leukemia Virus [4] = assay: In vivo inhibition of Friend Leukemia Virus splenomegaly, intravenous 1-2 hours post infection (Example 10); set-up: species or system mice; details: Mus musculus, read-out: EC50 for FV-induced splenomegaly
# Method: (§3) (3) In vivo inhibition of Friend Leukemia Virus Splenomegaly performed as described in Example 1 above except that the compounds were administered intravenously 1-2 hours post infection.
# The results presented above in Table IX are presented as EC50 concentrations. These are the effective concentrations which inhibit 50% of the viruses in micromolar concentrations.
# retroviruses = assay: Comparison over two in vitro and one in vivo biological assays (Example 10); details: Example 10, structural comparison
# Method: In order to investigate the structural features of hypericin which are essential for antiretroviral activity, numerous analogs and precursors of hypericin were examined for activity in two in vitro and one in vivo biological assay.
# (1) Direct inactivation of retroviruses in vitro, performed as in Example 3 above;
# as §3
# [5] = target: T1, Radiation Leukemia Virus reverse transcriptase; assay: Reverse transcriptase assay of Radiation Leukemia Virus from B10.T(6R) cell supernatants (Example 3); type: biochemical; details: for Average CPM / CPM / Average percent inhibition: Table V; for CPM: replicate
# Method: Supernatants (10 ml/tube) from B10.T(6R) cells (Meruelo et al. J. Exp. Med. 147: 470-487, 1978) chronically infected with Radiation Leukemia Virus (RadLV) were obtained by centrifugation of cells in culture at 4° C., 3500 rpm for 15 minutes. The top 2/3 of the supernatant were removed and aliquots were incubated for 30 minutes on ice with the indicated amounts of hypericin or protohypericin. […] Thereafter, supernatants were centrifuged at 100,000×g using a TI70 rotor (Beckman Instruments) for 1 hour at 4° C. The pellet was […] and analyzed for reverse transcriptase activity as follows.
# The reverse transcriptase assay was performed in a volume of 100 microliters containing the following components:
# The reverse transcriptase assay provides a measure of the antiviral activity of the compounds tested by reference to the observed decrease in activity of this enzyme.
# In Table V, "CPM" is "counts per minute", "Average" is the numerical average of CPM values within each group of animals.
smiles,measurement,setting,value
"Cc1cn([C@H]2C[C@H](N=[N+]=[N-])[C@@H](CO)O2)c(=O)[nH]c1=O [AZT, 3'-azido-3'-dideoxythymidine, reference compound]",clinical toxicity of AZT,HIV,"dose-dependent suppression of bone marrow, resulting in anemia and leukopenia"
same,% Inhibition,Friend Leukemia Virus [1],39%
same,Average Spleen Weight,Friend Leukemia Virus [1],1.3895
same,Spleen weight,Friend Leukemia Virus [1]; single animal,1.3744 and 1.4046
"O=c1c2ccccc2c2c3c1c(O)cc(O)c3c1c(O)cc(O)c3c(=O)c4ccccc4c2c31 [WIS-2, Tetrahydroxy-dibenzoperylene-dione]",Average % Inhibition,Friend Virus; 1 microgram,53.9%
same,Average Spleen Weight,Friend Virus; 1 microgram,0.7015
same,Actual Spleen Weight,Friend Virus; 1 microgram,0.6615 and 0.7519 and 0.6912
same,Average % Inhibition,Friend Virus; 10 micrograms,62.7%
same,Average Spleen Weight,Friend Virus; 10 micrograms,0.4701
same,Actual Spleen Weight,Friend Virus; 10 micrograms,0.4263 and 0.4868 and 0.4972
same,Average % Inhibition,Friend Virus; 50 micrograms,64.0%
same,Average Spleen Weight,Friend Virus; 50 micrograms,0.4603
same,Actual Spleen Weight,Friend Virus; 50 micrograms,0.4818 and 0.4925 and 0.4066
same,Average % Inhibition,Friend Virus; 150 micrograms,66.3%
same,Average Spleen Weight,Friend Virus; 150 micrograms,0.4416
same,Actual Spleen Weight,Friend Virus; 150 micrograms,0.4075 and 0.4656 and 0.4517
same,stability to light,[2],did not change upon irradiation
same,inhibition at 50 ng,[3]; 0.05 micrograms,41.6%
same,inhibition at 0.0001 mg,[3]; 0.1 micrograms,70.8%
same,inhibition at 0.0005 mg,[3]; 0.5 micrograms,98.1%
same,inhibition at 0.001 mg,[3]; 1 microgram,98.7%
same,inhibition at 0.002 mg,[3]; 2 micrograms,99.5%
same,inhibition at 0.005 mg,[3]; 5 micrograms,99.5%
same,inhibition at 0.01 mg,[3]; 10 micrograms,99.5%
"Cc1cc(O)c2cc3c(O)cc(O)c4c5c(O)cc(O)c6cc7c(O)cc(C)c8c1c2c(c34)c(c78)c65 [WIS-5, desoxyhypericin]",EC50,retroviruses (virions),> 21 µM
same,Average % Inhibition,Friend Virus; 1 microgram,5.9%
same,Average Spleen Weight,Friend Virus; 1 microgram,0.9197
same,Actual Spleen Weight,Friend Virus; 1 microgram,0.9062 and 0.9528 and 0.9001
same,Average % Inhibition,Friend Virus; 10 micrograms,6.5%
same,Average Spleen Weight,Friend Virus; 10 micrograms,0.9147
same,Actual Spleen Weight,Friend Virus; 10 micrograms,0.9126 and 0.8898 and 0.9417
same,Average % Inhibition,Friend Virus; 50 micrograms,19.3%
same,Average Spleen Weight,Friend Virus; 50 micrograms,0.8134
same,Actual Spleen Weight,Friend Virus; 50 micrograms,0.7817 and 0.8389 and 0.8196
same,Average % Inhibition,Friend Virus; 150 micrograms,35.2%
same,Average Spleen Weight,Friend Virus; 150 micrograms,0.6879
same,Actual Spleen Weight,Friend Virus; 150 micrograms,0.6919 and 0.6790 and 0.6927
same,EC50,"Friend Leukemia Virus [4]; i.v. 1-2 hours post infection, Table IX",> 316 µM
same,loss of antiviral activity relative to parent,retroviruses,significant loss of in vivo reverse transcriptase inhibitory activity
same,stability vs pH,[2]; neutral or acetic pH,decomposses readily in neutral or acetic pH
same,Average CPM,[3]; 0.05 micrograms,"193,017 CPM"
same,CPM,[3]; 0.05 micrograms,"183,654 CPM and 202,380 CPM"
same,Average CPM,[3]; 0.1 micrograms,"171,635 CPM"
same,CPM,[3]; 0.1 micrograms,"172,984 CPM and 170,286 CPM"
same,Average CPM,[3]; 0.5 micrograms,"249,351 CPM"
same,CPM,[3]; 0.5 micrograms,"240,372 CPM and 258,330 CPM"
same,Average CPM,[3]; 1 microgram,"251,168 CPM"
same,CPM,[3]; 1 microgram,"238,782 CPM and 263,554 CPM"
same,Average CPM,[3]; 2 micrograms,"205,469 CPM"
same,CPM,[3]; 2 micrograms,"216,764 CPM and 194,174 CPM"
same,Average CPM,[3]; 5 micrograms,"236,878 CPM"
same,CPM,[3]; 5 micrograms,"220,588 CPM and 253,168 CPM"
same,Average CPM,[3]; 10 micrograms,"177,364 CPM"
same,CPM,[3]; 10 micrograms,"168,008 CPM and 186,720 CPM"
same,inhibition at 50 ng,[3]; 0.05 micrograms,76.4%
same,inhibition at 0.0001 mg,[3]; 0.1 micrograms,79%
same,inhibition at 0.0005 mg,[3]; 0.5 micrograms,69.5%
same,inhibition at 0.001 mg,[3]; 1 microgram,69.2%
same,inhibition at 0.002 mg,[3]; 2 micrograms,74.8%
same,inhibition at 0.005 mg,[3]; 5 micrograms,71%
same,inhibition at 0.01 mg,[3]; 10 micrograms,78.3%
"Cc1cc(O)c2c(=O)c3c(O)cc(O)c4c5c(O)cc(O)c6c(=O)c7c(O)cc(C)cc7c(c65)c(c2c1)c34 [protohypericin, Protohypericin]",Average CPM,[5]; 0.05 micrograms,"309,103 CPM"
same,CPM,[5]; 0.05 micrograms,"310,952 CPM and 307,254 CPM"
same,Average CPM,[5]; 0.1 micrograms,"261,083 CPM"
same,CPM,[5]; 0.1 micrograms,"216,824 CPM and 305,342 CPM"
same,Average CPM,[5]; 0.5 micrograms,"257,879 CPM"
same,CPM,[5]; 0.5 micrograms,"264,710 CPM and 251,048 CPM"
same,Average CPM,[5]; 1 microgram,"227,614 CPM"
same,CPM,[5]; 1 microgram,"192,184 CPM and 263,044 CPM"
same,Average CPM,[5]; 5 micrograms,"12,633 CPM"
same,Average percent inhibition,[5]; 5 micrograms,94.0%
same,CPM,[5]; 5 micrograms,"12,358 CPM and 12,908 CPM"
same,Average CPM,[5]; 10 micrograms,"185,539 CPM"
same,Average percent inhibition,[5]; 10 micrograms,11.3%
same,CPM,[5]; 10 micrograms,"202,656 CPM and 168,422 CPM"
same,Average CPM,[5]; 50 micrograms,"71,641 CPM"
same,Average percent inhibition,[5]; 50 micrograms,65.8%
same,CPM,[5]; 50 micrograms,"75,816 CPM and 67,466 CPM"
same,Average CPM,[5]; 100 micrograms,"10,281 CPM"
same,Average percent inhibition,[5]; 100 micrograms,95.1%
same,CPM,[5]; 100 micrograms,"8,818 CPM and 11,744 CPM"
same,inhibition of RadLV reverse transcriptase activity,[5]; Example 3,significantly inhibited the reverse transcriptase activity of RadLV
same,concentration required relative to hypericin for the same degree of RT inhibition,"[5]; RadLV, vs hypericin",10 to 100 fold
same,EC50,retroviruses (virions),7.9 µM
same,EC50,Friend Leukemia Virus [4],98 µM
same,stability to light,[2],converts to hypericin upon exposure to light
